Test results taken from ChEMBL document CHEMBL3885881, “DrugMatrix”.

Species: Rattus norvegicus
Assay: DrugMatrix - Regimen: Daily Repeat
Format: toxicity, organism-based, Sprague-Dawley
Parameters: regimen Daily Repeat, gender Male, age 6-8 weeks
Details: in vivo, sc, route subcutaneous, […]; for ABSOLUTE BASOPHIL / ABSOLUTE EOSINOPHIL / ABSOLUTE LYMPHOCYTE / ABSOLUTE MONOCYTE / ABSOLUTE SEGMENTED NEUTROPHIL / BASOPHIL / EOSINOPHIL / ERYTHROCYTE COUNT / HEMATOCRIT / HEMOGLOBIN / LEUKOCYTE COUNT / LYMPHOCYTE / MEAN CORPUSCULAR HEMOGLOBIN / MEAN CORPUSCULAR HEMOGLOBIN CONCENTRATION / MEAN CORPUSCULAR VOLUME / MONOCYTE / NEUTROPHIL / NUCLEATED RED BLOOD CELLS / PLATELET COUNT: tissue Blood; for ALANINE AMINOTRANSFERASE / ALBUMIN / ALKALINE PHOSPHATASE / ASPARTATE AMINOTRANSFERASE / BLOOD UREA NITROGEN / CARBON DIOXIDE / CHLORIDE / CHOLESTEROL / CREATINE PHOSPHOKINASE / CREATININE / GLUCOSE / LACTATE DEHYDROGENASE / LIPASE / PHOSPHORUS / POTASSIUM / SODIUM / TOTAL BILIRUBIN / TOTAL PROTEIN / URIC ACID: tissue Plasma
[1] = 0 mg/kg, 72 h, dose level Control, time 3 day
[2] = 0 mg/kg, 120 h, dose level Control, time 5 day
[3] = 29 mg/kg, 72 h, dose level Low, time 3 day

For Nc1nc2c(ncn2CCC(CO)CO)c(=O)[nH]1 [PENCICLOVIR], the “ABSOLUTE BASOPHIL” value [1] was 0 CELLS/uL, the “ABSOLUTE EOSINOPHIL” value [1] was 42.67 CELLS/uL and the “ABSOLUTE LYMPHOCYTE” value [1] was 10202 CELLS/uL. For the same molecule, the “ABSOLUTE MONOCYTE” value [1] was 261.5 CELLS/uL, the “ABSOLUTE SEGMENTED NEUTROPHIL” value [1] was 2193.83 CELLS/uL and the BASOPHIL [1] was 0%. For the same molecule, the EOSINOPHIL [1] was 0.33%, the “ERYTHROCYTE COUNT” value [1] was 5.63 x10E6/uL and the HEMATOCRIT [1] was 35.35%. For the same molecule, the HEMOGLOBIN [1] was 13.07 G/DL, the “LEUKOCYTE COUNT” value [1] was 12.7 x10E3/uL and the LYMPHOCYTE [1] was 81.17%. The “MEAN CORPUSCULAR HEMOGLOBIN” value [1] was 23.23 pg, the “MEAN CORPUSCULAR HEMOGLOBIN CONCENTRATION” value [1] was 36.97 G/DL and the “MEAN CORPUSCULAR VOLUME” value [1] was 62.82 fL. For the same molecule, the MONOCYTE [1] was 2%, the NEUTROPHIL [1] was 16.5% and the “NUCLEATED RED BLOOD CELLS” value [1] was 0 /100WBC. The “PLATELET COUNT” value [1] was 1180.33 x10E3/uL, the “ALANINE AMINOTRANSFERASE” value [1] was 48.67 u/L and the ALBUMIN [1] was 4.08 G/DL. For the same molecule, the “ALKALINE PHOSPHATASE” value [1] was 360.67 u/L, the “ASPARTATE AMINOTRANSFERASE” value [1] was 85.5 u/L and the “BLOOD UREA NITROGEN” value [1] was 17.83 mg/dL. For the same molecule, the “CARBON DIOXIDE” value [1] was 26.17 mmol/L, the CHLORIDE [1] was 101.83 MEQ/L and the CHOLESTEROL [1] was 71 mg/dL. For the same molecule, the “CREATINE PHOSPHOKINASE” value [1] was 515.17 u/L, the CREATININE [1] was 0.22 mg/dL and the GLUCOSE [1] was 192.5 mg/dL. The “LACTATE DEHYDROGENASE” value [1] was 214.67 u/L, the LIPASE [1] was 8.5 u/L and the PHOSPHORUS [1] was 12.95 mg/dL. For the same molecule, the POTASSIUM [1] was 6.39 MEQ/L, the SODIUM [1] was 142.38 MEQ/L and the “TOTAL BILIRUBIN” value [1] was 0.18 mg/dL. The “TOTAL PROTEIN” value [1] was 5.95 G/DL, the “URIC ACID” value [1] was 1.83 mg/dL and the “ABSOLUTE BASOPHIL” value [2] was 0 CELLS/uL. For the same molecule, the “ABSOLUTE EOSINOPHIL” value [2] was 188.5 CELLS/uL, the “ABSOLUTE LYMPHOCYTE” value [2] was 12360.83 CELLS/uL and the “ABSOLUTE MONOCYTE” value [2] was 64.33 CELLS/uL. The “ABSOLUTE SEGMENTED NEUTROPHIL” value [2] was 1986.33 CELLS/uL, the BASOPHIL [2] was 0% and the EOSINOPHIL [2] was 1.33%. The “ERYTHROCYTE COUNT” value [2] was 5.52 x10E6/uL, the HEMATOCRIT [2] was 35.82% and the HEMOGLOBIN [2] was 13.25 G/DL. For the same molecule, the “LEUKOCYTE COUNT” value [2] was 14.6 x10E3/uL, the LYMPHOCYTE [2] was 84.5% and the “MEAN CORPUSCULAR HEMOGLOBIN” value [2] was 24.05 pg. For the same molecule, the “MEAN CORPUSCULAR HEMOGLOBIN CONCENTRATION” value [2] was 36.98 G/DL, the “MEAN CORPUSCULAR VOLUME” value [2] was 64.97 fL and the MONOCYTE [2] was 0.5%. For the same molecule, the NEUTROPHIL [2] was 13.67%, the “NUCLEATED RED BLOOD CELLS” value [2] was 0 /100WBC and the “PLATELET COUNT” value [2] was 1297.83 x10E3/uL. For the same molecule, the “ALANINE AMINOTRANSFERASE” value [2] was 51.17 u/L, the ALBUMIN [2] was 4.08 G/DL and the “ALKALINE PHOSPHATASE” value [2] was 393.17 u/L. For the same molecule, the “ASPARTATE AMINOTRANSFERASE” value [2] was 111 u/L, the “BLOOD UREA NITROGEN” value [2] was 18.17 mg/dL and the “CARBON DIOXIDE” value [2] was 25 mmol/L. The CHLORIDE [2] was 105.17 MEQ/L, the CHOLESTEROL [2] was 65.5 mg/dL and the “CREATINE PHOSPHOKINASE” value [2] was 911.5 u/L. For the same molecule, the CREATININE [2] was 0.21 mg/dL, the GLUCOSE [2] was 183 mg/dL and the “LACTATE DEHYDROGENASE” value [2] was 189 u/L. For the same molecule, the LIPASE [2] was 8.33 u/L, the PHOSPHORUS [2] was 12.78 mg/dL and the POTASSIUM [2] was 6.05 MEQ/L. For the same molecule, the SODIUM [2] was 144.57 MEQ/L, the “TOTAL BILIRUBIN” value [2] was 0.25 mg/dL and the “TOTAL PROTEIN” value [2] was 5.83 G/DL. For the same molecule, the “URIC ACID” value [2] was 1.58 mg/dL, the “ABSOLUTE BASOPHIL” value [3] was 0 CELLS/uL and the “ABSOLUTE EOSINOPHIL” value [3] was 232.67 CELLS/uL. The “ABSOLUTE LYMPHOCYTE” value [3] was 11739.33 CELLS/uL, the “ABSOLUTE MONOCYTE” value [3] was 92.67 CELLS/uL and the “ABSOLUTE SEGMENTED NEUTROPHIL” value [3] was 1668.67 CELLS/uL. The BASOPHIL [3] was 0%, the EOSINOPHIL [3] was 1.67% and the “ERYTHROCYTE COUNT” value [3] was 5.23 x10E6/uL. The HEMATOCRIT [3] was 33.7%, the HEMOGLOBIN [3] was 12.47 G/DL and the “LEUKOCYTE COUNT” value [3] was 13.73 x10E3/uL. For the same molecule, the LYMPHOCYTE [3] was 85.67%, the “MEAN CORPUSCULAR HEMOGLOBIN” value [3] was 23.87 pg and the “MEAN CORPUSCULAR HEMOGLOBIN CONCENTRATION” value [3] was 36.97 G/DL. For the same molecule, the “MEAN CORPUSCULAR VOLUME” value [3] was 64.5 fL, the MONOCYTE [3] was 0.67% and the NEUTROPHIL [3] was 12%. The “NUCLEATED RED BLOOD CELLS” value [3] was 0 /100WBC, the “PLATELET COUNT” value [3] was 1318 x10E3/uL and the “ALANINE AMINOTRANSFERASE” value [3] was 47 u/L. The ALBUMIN [3] was 4.03 G/DL, the “ALKALINE PHOSPHATASE” value [3] was 451.67 u/L and the “ASPARTATE AMINOTRANSFERASE” value [3] was 88.67 u/L. For the same molecule, the “BLOOD UREA NITROGEN” value [3] was 15 mg/dL, the “CARBON DIOXIDE” value [3] was 28 mmol/L and the CHLORIDE [3] was 104.67 MEQ/L. For the same molecule, the CHOLESTEROL [3] was 64 mg/dL, the “CREATINE PHOSPHOKINASE” value [3] was 727.67 u/L and the CREATININE [3] was 0.21 mg/dL. For the same molecule, the GLUCOSE [3] was 162.33 mg/dL, the “LACTATE DEHYDROGENASE” value [3] was 101 u/L and the LIPASE [3] was 8.33 u/L. It also gave a PHOSPHORUS [3] of 13 mg/dL, a POTASSIUM [3] of 6.56 MEQ/L and an SODIUM [3] of 146.33 MEQ/L. The “TOTAL BILIRUBIN” value [3] was 0.2 mg/dL, the “TOTAL PROTEIN” value [3] was 5.9 G/DL and the “URIC ACID” value [3] was 1.7 mg/dL.
